Targets include WNK1 (Homo sapiens, UniProt Q9H4A3); AAK1 (Homo sapiens, UniProt Q2M2I8); BUB1 (Homo sapiens, UniProt O43683); KIT(V559D,T670I) (Homo sapiens, UniProt P10721, T670I/V559D); ACVR2A (Homo sapiens, UniProt P27037); PAK2 (Homo sapiens, UniProt Q13177).
Test in all cases: biochemical
Design in all cases: DiscoveRx KINOMEscan active site-directed competition binding; percent of control kinase bound to immobilised ligand

The target in a further assay is T1, HUNK (Homo sapiens, UniProt P57058).
T1 sequence (P57058 1-714): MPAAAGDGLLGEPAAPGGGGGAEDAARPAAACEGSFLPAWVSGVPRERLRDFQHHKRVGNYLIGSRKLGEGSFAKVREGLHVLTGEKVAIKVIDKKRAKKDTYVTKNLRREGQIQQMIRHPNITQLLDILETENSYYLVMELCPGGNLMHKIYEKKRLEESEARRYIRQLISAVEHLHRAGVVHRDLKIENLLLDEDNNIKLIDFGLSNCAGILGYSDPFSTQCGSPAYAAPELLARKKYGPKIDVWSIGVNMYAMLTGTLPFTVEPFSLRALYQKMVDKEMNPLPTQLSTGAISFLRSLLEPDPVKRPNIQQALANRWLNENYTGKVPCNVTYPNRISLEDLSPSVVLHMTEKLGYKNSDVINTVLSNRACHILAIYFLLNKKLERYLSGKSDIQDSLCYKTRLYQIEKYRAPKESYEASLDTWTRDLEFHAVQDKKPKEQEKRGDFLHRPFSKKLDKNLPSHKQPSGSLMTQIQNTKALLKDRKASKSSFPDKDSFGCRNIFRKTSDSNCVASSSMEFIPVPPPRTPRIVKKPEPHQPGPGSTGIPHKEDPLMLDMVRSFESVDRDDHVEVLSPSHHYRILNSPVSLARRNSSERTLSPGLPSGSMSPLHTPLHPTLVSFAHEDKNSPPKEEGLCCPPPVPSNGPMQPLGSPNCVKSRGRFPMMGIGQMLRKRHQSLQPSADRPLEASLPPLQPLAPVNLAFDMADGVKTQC

The target of the next assay is T2, RIPK5 (Homo sapiens, UniProt Q6XUX3).
T2 construct: gene DSTYK
T2 sequence (Q6XUX3 1-929): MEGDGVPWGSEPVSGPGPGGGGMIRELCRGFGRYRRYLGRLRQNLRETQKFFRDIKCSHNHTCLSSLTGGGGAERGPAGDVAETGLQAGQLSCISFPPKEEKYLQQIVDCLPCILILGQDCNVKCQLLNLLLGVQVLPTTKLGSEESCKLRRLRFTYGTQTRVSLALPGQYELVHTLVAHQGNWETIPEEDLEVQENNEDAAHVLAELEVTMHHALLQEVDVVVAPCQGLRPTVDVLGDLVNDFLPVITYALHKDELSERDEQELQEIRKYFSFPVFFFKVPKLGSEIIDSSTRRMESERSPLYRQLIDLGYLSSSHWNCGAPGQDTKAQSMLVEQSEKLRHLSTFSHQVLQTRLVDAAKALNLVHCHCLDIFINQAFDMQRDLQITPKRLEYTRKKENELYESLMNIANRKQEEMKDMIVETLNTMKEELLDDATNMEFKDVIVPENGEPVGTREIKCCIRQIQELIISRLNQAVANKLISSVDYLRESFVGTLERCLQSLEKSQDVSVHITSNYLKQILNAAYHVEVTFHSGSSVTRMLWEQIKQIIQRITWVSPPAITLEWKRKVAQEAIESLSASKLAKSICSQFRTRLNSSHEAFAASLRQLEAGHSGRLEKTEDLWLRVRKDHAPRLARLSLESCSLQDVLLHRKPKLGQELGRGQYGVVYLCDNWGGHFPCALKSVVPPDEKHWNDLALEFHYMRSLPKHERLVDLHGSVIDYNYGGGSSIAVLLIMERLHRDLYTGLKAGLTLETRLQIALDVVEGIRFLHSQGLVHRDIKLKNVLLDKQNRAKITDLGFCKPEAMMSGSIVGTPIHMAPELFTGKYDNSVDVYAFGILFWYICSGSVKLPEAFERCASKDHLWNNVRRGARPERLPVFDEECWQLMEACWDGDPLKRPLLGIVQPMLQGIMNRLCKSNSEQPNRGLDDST

Assay [1] addresses T3, RPS6KA5(Kin.Dom.2-C-terminal) (Homo sapiens, UniProt O75582).
T3 construct: Kin.Dom.2-C-terminal

[2] abbreviates: read-out: Niraparib (MK-4827) / %Ctrl @ 10000nM.
Setting [3] is: read-out: Olaparib / %Ctrl @ 10000nM.
[4] abbreviates: read-out: Rucaparib / %Ctrl @ 10000nM, binding competition, % of control.
Setting [5] is: read-out: Talazoparib (BMN 673) / %Ctrl @ 10000nM.

Molecules are shown by their SMILES. Read-outs that look alike come from different tables or passages of the source.

BUB1, sequence (O43683 whole entry): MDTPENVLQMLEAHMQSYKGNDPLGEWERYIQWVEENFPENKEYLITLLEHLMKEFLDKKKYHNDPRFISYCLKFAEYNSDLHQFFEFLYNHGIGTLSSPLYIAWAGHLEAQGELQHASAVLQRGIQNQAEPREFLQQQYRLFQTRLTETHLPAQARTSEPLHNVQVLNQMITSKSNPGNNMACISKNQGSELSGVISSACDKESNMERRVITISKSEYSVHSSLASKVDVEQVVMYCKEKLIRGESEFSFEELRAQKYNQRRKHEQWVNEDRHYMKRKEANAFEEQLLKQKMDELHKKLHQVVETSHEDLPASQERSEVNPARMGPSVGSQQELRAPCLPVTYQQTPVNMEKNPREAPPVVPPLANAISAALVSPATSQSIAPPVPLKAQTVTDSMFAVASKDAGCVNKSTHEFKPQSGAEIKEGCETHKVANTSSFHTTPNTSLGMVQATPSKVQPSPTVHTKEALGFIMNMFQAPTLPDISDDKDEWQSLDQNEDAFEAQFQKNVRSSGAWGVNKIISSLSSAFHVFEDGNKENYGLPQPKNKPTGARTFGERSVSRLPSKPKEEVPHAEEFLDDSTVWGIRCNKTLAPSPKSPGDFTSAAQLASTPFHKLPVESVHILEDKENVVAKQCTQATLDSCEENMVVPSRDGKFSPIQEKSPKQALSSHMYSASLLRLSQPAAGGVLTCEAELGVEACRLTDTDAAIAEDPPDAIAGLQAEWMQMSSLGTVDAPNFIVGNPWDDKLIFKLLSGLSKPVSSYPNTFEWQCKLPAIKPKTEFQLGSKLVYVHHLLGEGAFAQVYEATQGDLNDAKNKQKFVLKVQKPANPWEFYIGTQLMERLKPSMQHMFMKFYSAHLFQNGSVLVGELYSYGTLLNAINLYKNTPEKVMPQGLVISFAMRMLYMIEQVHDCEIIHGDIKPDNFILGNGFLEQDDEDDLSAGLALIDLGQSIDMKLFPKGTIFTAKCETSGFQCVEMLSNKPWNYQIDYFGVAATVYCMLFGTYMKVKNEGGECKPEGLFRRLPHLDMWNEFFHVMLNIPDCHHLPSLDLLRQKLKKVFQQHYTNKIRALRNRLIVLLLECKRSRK
ACVR2A, sequence (P27037 whole entry): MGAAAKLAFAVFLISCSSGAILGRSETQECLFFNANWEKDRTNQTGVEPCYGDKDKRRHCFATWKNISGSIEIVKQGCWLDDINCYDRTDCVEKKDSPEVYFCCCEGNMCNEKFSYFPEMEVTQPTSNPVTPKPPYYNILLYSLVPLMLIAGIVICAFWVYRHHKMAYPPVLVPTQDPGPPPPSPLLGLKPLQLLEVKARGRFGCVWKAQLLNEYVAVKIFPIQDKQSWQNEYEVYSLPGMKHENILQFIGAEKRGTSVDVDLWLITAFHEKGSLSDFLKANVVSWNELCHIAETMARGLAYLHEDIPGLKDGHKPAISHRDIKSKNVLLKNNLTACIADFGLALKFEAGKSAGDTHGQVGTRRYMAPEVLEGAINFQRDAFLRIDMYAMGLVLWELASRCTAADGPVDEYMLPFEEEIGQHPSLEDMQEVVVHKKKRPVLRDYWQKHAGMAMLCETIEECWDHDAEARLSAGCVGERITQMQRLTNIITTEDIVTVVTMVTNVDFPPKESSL
KIT(V559D,T670I), sequence (P10721 whole entry V559D/T670I): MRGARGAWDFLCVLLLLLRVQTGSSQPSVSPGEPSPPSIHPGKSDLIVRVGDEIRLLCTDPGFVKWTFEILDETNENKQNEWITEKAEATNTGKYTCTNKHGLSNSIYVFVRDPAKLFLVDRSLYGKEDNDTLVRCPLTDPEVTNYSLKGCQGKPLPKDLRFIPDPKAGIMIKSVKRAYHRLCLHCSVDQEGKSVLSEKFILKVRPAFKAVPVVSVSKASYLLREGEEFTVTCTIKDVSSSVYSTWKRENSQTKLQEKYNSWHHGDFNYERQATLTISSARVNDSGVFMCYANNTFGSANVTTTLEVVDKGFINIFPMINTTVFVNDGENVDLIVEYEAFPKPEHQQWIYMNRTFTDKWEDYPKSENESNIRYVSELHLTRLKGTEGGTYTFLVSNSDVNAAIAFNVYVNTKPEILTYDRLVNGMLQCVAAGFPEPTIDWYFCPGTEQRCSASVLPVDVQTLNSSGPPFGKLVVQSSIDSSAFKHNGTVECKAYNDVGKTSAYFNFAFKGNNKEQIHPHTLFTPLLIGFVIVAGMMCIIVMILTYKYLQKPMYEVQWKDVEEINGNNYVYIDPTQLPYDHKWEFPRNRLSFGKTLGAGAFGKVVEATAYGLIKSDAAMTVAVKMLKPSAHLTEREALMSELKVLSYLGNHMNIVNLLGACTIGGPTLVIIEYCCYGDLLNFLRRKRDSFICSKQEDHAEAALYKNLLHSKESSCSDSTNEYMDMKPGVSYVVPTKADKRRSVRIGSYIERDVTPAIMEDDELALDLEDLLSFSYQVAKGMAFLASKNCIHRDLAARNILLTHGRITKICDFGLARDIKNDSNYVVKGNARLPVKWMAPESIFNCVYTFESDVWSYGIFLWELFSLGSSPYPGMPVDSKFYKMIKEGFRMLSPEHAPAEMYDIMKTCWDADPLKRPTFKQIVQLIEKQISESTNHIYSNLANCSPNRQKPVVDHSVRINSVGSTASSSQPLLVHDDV
PAK2, sequence (Q13177 whole entry): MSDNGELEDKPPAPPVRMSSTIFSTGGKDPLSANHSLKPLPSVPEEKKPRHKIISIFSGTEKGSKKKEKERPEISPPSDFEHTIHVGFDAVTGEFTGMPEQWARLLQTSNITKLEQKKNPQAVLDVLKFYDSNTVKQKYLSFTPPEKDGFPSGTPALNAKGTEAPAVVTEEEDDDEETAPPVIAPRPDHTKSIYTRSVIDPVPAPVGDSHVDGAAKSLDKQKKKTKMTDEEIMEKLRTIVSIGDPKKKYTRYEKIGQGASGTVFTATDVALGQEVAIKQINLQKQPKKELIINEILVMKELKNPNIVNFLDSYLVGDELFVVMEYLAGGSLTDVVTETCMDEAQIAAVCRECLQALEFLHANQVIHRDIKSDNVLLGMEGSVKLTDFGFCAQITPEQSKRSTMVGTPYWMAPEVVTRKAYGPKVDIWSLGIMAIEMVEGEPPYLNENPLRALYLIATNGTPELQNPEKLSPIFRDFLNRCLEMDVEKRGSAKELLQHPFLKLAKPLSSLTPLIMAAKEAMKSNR
T3 sequence (O75582 whole entry): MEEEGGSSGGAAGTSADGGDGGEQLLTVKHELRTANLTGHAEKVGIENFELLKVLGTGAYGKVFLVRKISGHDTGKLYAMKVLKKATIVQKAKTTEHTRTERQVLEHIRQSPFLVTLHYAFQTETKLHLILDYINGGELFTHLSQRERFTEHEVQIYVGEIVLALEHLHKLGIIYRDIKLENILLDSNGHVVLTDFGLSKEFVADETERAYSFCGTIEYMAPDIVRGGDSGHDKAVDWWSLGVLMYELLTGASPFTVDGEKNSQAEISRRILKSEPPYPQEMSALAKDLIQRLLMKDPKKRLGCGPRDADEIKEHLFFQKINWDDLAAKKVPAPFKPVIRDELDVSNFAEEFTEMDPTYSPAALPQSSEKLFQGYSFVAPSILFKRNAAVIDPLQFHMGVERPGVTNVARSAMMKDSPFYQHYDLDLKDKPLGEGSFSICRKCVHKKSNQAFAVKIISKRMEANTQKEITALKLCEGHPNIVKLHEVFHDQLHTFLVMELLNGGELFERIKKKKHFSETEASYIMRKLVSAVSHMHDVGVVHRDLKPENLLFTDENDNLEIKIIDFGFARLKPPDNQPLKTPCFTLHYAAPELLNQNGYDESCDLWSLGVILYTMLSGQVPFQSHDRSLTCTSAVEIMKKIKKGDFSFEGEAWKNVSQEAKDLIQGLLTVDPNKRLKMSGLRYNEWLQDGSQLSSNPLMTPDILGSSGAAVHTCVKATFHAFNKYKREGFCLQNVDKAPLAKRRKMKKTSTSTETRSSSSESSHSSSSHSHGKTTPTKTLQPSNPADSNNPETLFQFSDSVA
AAK1, sequence (Q2M2I8 whole entry): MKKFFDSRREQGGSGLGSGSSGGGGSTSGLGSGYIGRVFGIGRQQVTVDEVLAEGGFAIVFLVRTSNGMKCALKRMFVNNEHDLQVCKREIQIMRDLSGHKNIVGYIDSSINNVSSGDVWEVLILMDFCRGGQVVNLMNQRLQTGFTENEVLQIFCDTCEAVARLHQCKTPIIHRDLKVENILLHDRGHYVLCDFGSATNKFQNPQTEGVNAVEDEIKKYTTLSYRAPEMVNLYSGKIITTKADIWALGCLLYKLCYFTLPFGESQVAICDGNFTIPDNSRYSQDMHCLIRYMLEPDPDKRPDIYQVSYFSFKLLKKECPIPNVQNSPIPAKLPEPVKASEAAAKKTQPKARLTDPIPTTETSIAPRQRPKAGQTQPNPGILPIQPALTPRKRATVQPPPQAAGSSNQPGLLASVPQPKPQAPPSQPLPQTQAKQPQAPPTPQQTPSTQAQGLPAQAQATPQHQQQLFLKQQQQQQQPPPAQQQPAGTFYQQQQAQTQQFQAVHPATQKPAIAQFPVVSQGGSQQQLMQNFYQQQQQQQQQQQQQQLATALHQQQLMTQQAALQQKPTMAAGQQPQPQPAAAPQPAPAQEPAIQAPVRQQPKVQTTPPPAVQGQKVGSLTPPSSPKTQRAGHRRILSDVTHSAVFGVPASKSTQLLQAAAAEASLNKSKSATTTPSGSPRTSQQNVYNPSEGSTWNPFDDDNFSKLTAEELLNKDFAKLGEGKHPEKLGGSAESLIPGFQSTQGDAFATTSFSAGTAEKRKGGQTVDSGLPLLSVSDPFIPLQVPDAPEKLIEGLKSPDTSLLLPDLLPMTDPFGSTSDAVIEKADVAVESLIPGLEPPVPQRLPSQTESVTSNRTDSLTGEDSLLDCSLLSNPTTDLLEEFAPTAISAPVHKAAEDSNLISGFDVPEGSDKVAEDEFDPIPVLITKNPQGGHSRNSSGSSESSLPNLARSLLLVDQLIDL

As for `NC(=O)c1cccc2cn(-c3ccc([C@@H]4CCCNC4)cc3)nc12` [Niraparib], the percent of control binding at 10 µM on HUNK (setting [2]) is 98%; at RIPK5 (setting [2]) it was 89%; at WNK1 (setting [2]) it was 100%; at AAK1 (setting [2]) it was 83%; at BUB1 (setting [2]), 97%; at KIT(V559D,T670I) (setting [2]), 97%. Moreover, the percent of control binding at 10 µM in assay [1] (setting [2]) was found to be 96%; on ACVR2A (setting [2]) it was 99%; at PAK2 (setting [2]) it was 45%.

With `O=C(c1cc(Cc2n[nH]c(=O)c3ccccc23)ccc1F)N1CCN(C(=O)C2CC2)CC1` [Olaparib], the percent of control binding at 10 µM came out at 88% on HUNK (setting [3]); 100% on RIPK5 (setting [3]); 76% at WNK1 (setting [3]); 100% at AAK1 (setting [3]); 83% on BUB1 (setting [3]); 92% at KIT(V559D,T670I) (setting [3]). The percent of control binding at 10 µM came to 97% in assay [1] (setting [3]), 95% on ACVR2A (setting [3]) and 92% on PAK2 (setting [3]).

Regarding `CNCc1ccc(-c2[nH]c3cc(F)cc4c3c2CCNC4=O)cc1` [Rucaparib], the percent of control binding at 10 µM on HUNK (setting [4]) worked out at 100%; on RIPK5 (setting [4]), 96%; on WNK1 (setting [4]), 81%; at AAK1 (setting [4]), 82%; at BUB1 (setting [4]) it was 48%; on KIT(V559D,T670I) (setting [4]), 91%. Further, the percent of control binding at 10 µM in assay [1] (setting [4]) came out at 77%; at ACVR2A (setting [4]), 100%; at PAK2 (setting [4]), 31%.

Regarding `Cn1ncnc1[C@H]1c2n[nH]c(=O)c3cc(F)cc(c23)N[C@@H]1c1ccc(F)cc1` [Talazoparib], the percent of control binding at 10 µM on HUNK (setting [5]) amounted to 100%; on RIPK5 (setting [5]), 100%; on WNK1 (setting [5]), 100%; at AAK1 (setting [5]), 93%; at BUB1 (setting [5]), 100%; on KIT(V559D,T670I) (setting [5]), 100%. Further, the percent of control binding at 10 µM in assay [1] (setting [5]) was found to be 80%; at ACVR2A (setting [5]) it was 100%; on PAK2 (setting [5]), 84%.

Source of the values: article PMC7026418, “The kinase polypharmacology landscape of clinical PARP inhibitors” (Scientific Reports, 2020).
